Measured values as given in patent US20200179369A1, “TREATMENT OF DIABETIC NEPHROPATHY” (TAKEDA GMBH, priority 2015, published 2020).

Experiments:
[1] = test system: uninephrectomized db/db mice; experiment: Diabetic nephropathy in uninephrectomized db/db mice, 8 week treatment starting 12 weeks after the uninephrectomy; type: in vivo; conditions: 8 weeks starting 12 weeks after uninephrectomy
Procedure: The experimental protocol is similar to the experimental protocol described above with the exception that the 8 week treatment with Compound A or irbesartan was started not already at 4 weeks after the uninephrectomy, but only 12 weeks after the uninephrectomy (i.e. when the increase of urinary albumin/creatinine ratio (UACR) is already in a much more advanced stage). Roflumilast was not used as a comparator in this experiment.
Compound A (1, 3 and 10 mg/kg, QD) and irbesartan (50 and 100 mg/kg, QD) were suspended in 0.5% methyl cellulose solution and orally administered to mice for 8 weeks starting 12 weeks after the uninephrectomy.
For evaluation of the effects of Compound A, statistical differences between vehicle- and Compound A treated groups were analyzed with one-tailed Williams' test for GHB, PG and BW and one-tailed Shirley-Williams' test for UACR. For irbesartan, statistical differences between vehicle- and irbesartan treated groups were analyzed with one-tailed Williams' test for UACR, GHb, PG and BW. The P-values less than 0.025 were considered statistically significant in one-tailed Williams' test or one-tailed Shirley-Williams' test.

[2] = test system: uninephrectomized db/db mice; experiment: Diabetic nephropathy in uninephrectomized db/db mice, 8 week treatment starting 4 weeks after the uninephrectomy; type: in vivo; conditions: 8 weeks starting 4 weeks after uninephrectomy
Procedure: Male 5-week-old BKS.Cg-+Lepr^db/+Lepr^db (db/db) mice were purchased from CLEA Japan, Inc. All mice were fed with a standard diet (CE-2, CLEA Japan, Inc.) and tap water ad libitum.
Compound A was obtained from Takeda GmbH, Konstanz, Germany. Irbesartan was purchased from LKT Laboratories, Inc (USA).
In 6 week old male db/db mice an unilateral nephrectomy was performed. Under the anesthesia with isoflurane inhalation, the right kidney was removed from the mice. After 4-week recovery period, blood samples were obtained by the puncture of facial vein and blood level of glycosylated hemoglobin (GHb) was measured by automated HPLC-based GHb analyzer (HLC-723 G8, TOSOH, Japan). After the separation of plasma samples by centrifugation, also plasma levels of glucose (PG) were measured by Autoanalyzer 7180 (Hitachi, Japan). Urine samples were collected for a 8 h time-period using metabolic cages and urine creatinine level was measured by Autoanalyzer 7180. After desaltation of urine samples with PD MiniTrap G-25 column (GE healthcare, UK), urinary levels of albumin were measured by ELISA, and urinary albumin/creatinine ratio (UACR) was calculated.
Compound A (1, 3 and 10 mg/kg, QD), roflumilast (3 mg/kg, QD) and irbesartan (50 mg/kg, QD) were suspended in 0.5% methyl cellulose solution and orally administered to mice for 8 weeks starting 4 weeks after the uninephrectomy.
At the end of the 8 weeks once daily administration blood, plasma and urine samples were obtained according to the same methods as described above. GHb, PG, urinary creatinine and albumin were measured and UACR was calculated. Body weight (BW) was measured every week during the treatment.
For evaluation of the effects of Compound A, statistical differences between vehicle- and Compound A treated groups were analyzed with two-tailed Williams' test for PG and BW and two-tailed Shirley-Williams' test for UACR and GHb. The P-values less than 0.05 were considered statistically significant in two-tailed Williams' test or Shirley-Williams' test.
For roflumilast and irbesartan, statistical differences between vehicle- and compounds-treated groups were analyzed with Student's t-test for GHb, PG and BW and Welch test for UACR. The P-values less than 0.05 were considered statistically significant in Student's t-test and Welch test.

SMILES	effect on urinary albumin/creatinine ratio (UACR) ([1]; 50 mg/kg QD oral)	effect on urinary albumin/creatinine ratio (UACR) ([1]; 100 mg/kg QD oral)	effect on body weight (BW) ([1]; 50 and 100 mg/kg QD oral)	effect on glucose plasma levels (PG) ([1]; 50 and 100 mg/kg QD oral)	effect on glycosylated hemoglobin (GHb) ([1]; 50 and 100 mg/kg QD oral)	effect on blood level of glycosylated hemoglobin (GHb) ([2]; 50 mg/kg QD oral)	effect on increase of urinary albumin/creatinine ratio (UACR) ([2]; 50 mg/kg QD oral)	effect on plasma levels of glucose (PG) ([2]; 50 mg/kg QD oral)	effect on blood level of glycosylated hemoglobin (GHb) ([2]; 3 mg/kg QD oral)	effect on increase of urinary albumin/creatinine ratio (UACR) ([2]; 3 mg/kg QD oral)	effect on plasma levels of glucose (PG) ([2]; 3 mg/kg QD oral)
CCCCC1=NC2(CCCC2)C(=O)N1Cc1ccc(-c2ccccc2-c2nnn[nH]2)cc1 [irbesartan, 2-butyl-3-[p-(o-1H-tetrazol-5-ylphenyl)benzyl]-1,3-diazaspiro[4.4]non-1-en-4-one, reference compound]	significant suppression on increase in UACR	significant suppression on increase in UACR	Neither Compound A nor Irbesartan affected the body weight	did not show inhibitory effects	did not show inhibitory effects	Almost no effect compared to the vehicle group	tended to suppress the increase of UACR, but its effect was not statistically significant	Almost no effect compared to the vehicle group	–	–	–
O=C(Nc1c(Cl)cncc1Cl)c1ccc(OC(F)F)c(OCC2CC2)c1 [roflumilast, reference compound]	–	–	–	–	–	–	–	–	Almost no effect compared to the vehicle group	mild and was not statistically significant	Almost no effect compared to the vehicle group
